In patent EP4603105A1, “PHARMACEUTICAL COMPOSITION CONTAINING CYCLIC COMPOUND HAVING SELECTIVE KRAS INHIBITORY EFFECT AGAINST HRAS AND NRAS” (CHUGAI SEIYAKU KABUSHIKI KAISHA, priority 2022, dated 2024):
*1 amine or outer side, *2 acyl side, *3 side chain or, on linkers, in order; H or OH if unused. Where a SMILES comes first, the peptide text is derived from it. Bridges are numbered along the chain shown (N, C = ends). [ ]: non-standard residue; d: D form. The star is where a group is joined. X38 = CC(C)CCN([C@@H](Cc1ccc(C(F)(F)F)cc1)C(=O)[*:2])[*:1]; hPhe(3-Cl-4-CF3) = N[C@@H](CCc1ccc(C(F)(F)F)c(Cl)c1)C(=O)O; NPrPhe(4-CF3) = CCCN[C@@H](Cc1ccc(C(F)(F)F)cc1)C(=O)O; NMeGly(cPent) = CN[C@H](C(=O)O)C1CCCC1; Hyp = O=C(O)[C@@H]1C[C@@H](O)CN1; NMeD = CN[C@@H](CC(=O)O)C(=O)O; NMeL = CN[C@@H](CC(C)C)C(=O)O; Morpholide = C1CN(*)CCO1; NMeA = CN[C@@H](C)C(=O)O; Ac5c = NC1(C(=O)O)CCCC1; Aze = O=C(O)[C@@H]1CCN1; Ac4c = NC1(C(=O)O)CCC1; Aib = CC(C)(N)C(=O)O; NPrGly = CCCNCC(=O)O; Sar = CNCC(=O)O

Assays:
HRAS wild-type protein = HRAS wild-type protein (Homo sapiens, UniProt P01112); test: Binding to HRAS by surface plasmon resonance (SPR), KD and KD ratio to KRAS
HRAS wild-type protein, sequence (P01112 whole entry): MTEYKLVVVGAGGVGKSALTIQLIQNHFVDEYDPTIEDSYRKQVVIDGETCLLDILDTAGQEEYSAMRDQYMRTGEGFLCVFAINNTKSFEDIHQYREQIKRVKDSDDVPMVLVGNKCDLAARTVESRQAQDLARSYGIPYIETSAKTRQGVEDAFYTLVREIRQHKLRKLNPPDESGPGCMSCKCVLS
In short: (§1)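 Running buffer contained 10 µM GDP and 10 mM MgCl2 to keep RAS in the GDP state, with 4% DMSO at pH 7.4. Compounds were flowed at 100 µL/min in 75 s steps of rising concentration over captured biotin-Avi RAS at 30°C. Sensorgrams were fitted 1:1 for KD.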

[1] = molecular target: GDP-bound NRAS wild-type protein (Homo sapiens, UniProt P01111); test: Binding to NRAS by surface plasmon resonance (SPR), KD and KD ratio to KRAS
GDP-bound NRAS wild-type protein, sequence (P01111 whole entry): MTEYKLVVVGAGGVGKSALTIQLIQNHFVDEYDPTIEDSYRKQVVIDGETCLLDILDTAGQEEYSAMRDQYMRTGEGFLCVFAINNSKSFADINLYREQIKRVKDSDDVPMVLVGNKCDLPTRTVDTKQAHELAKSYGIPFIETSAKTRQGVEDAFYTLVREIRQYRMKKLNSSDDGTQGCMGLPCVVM
In short: as §1

[2] = test system: human lung cancer strain NCI-H441; assay type: cell-based
In short: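 Step one: dispense the test compound in serial DMSO dilutions. Step three: add the reagent and measure […].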

[3] = ratio of the KD value with respect to HRAS wild-type protein to the KD value with respect to KRAS
[4] = ratio of the KD value with respect to GDP-bound NRAS wild-type protein to the KD value with respect to KRAS
[5] = ratio of KD for HRAS wild-type protein to KD for KRAS
[6] = ratio of KD for GDP-bound NRAS wild-type protein to KD for KRAS
[7] = ratio of KD value for HRAS wild-type protein to KD value for KRAS (SPR)
[8] = ratio of KD value for GDP-bound NRAS wild-type protein to KD value for KRAS (SPR)

IC50 [2] [nM]	SMILES	HRAS /KRAS (HRAS wild-type protein; [3])	NRAS /KRAS [1, 4]	HRAS /KRAS (HRAS wild-type protein; [5])	NRAS /KRAS [1, 6]	HRAS /KRAS (HRAS wild-type protein; [7])	NRAS /KRAS [1, 8]
10.5	CCCN(C)C(=O)[C@@H]1CC(=O)N(C)[C@@H](CC(F)F)C(=O)N[C@@H]([C@@H](C)CC)C(=O)N(C)CC(=O)N(C)[C@H]2C/C=C\CCN(C2=O)[C@@H](Cc2ccc(C(F)(F)F)cc2)C(=O)N(C)CC(=O)N[C@@H](CCc2cc(F)c(C(F)(F)F)c(F)c2)C(=O)N2C[C@@H](C)C[C@H]2C(=O)NC2(CC(C)(C)C2)C(=O)N(C)[C@@H](C2CCCC2)C(=O)N1C [PP2040]	A (a compound having 10 or more and less than 20 is denoted as A)	A (a compound having 10 or more and less than 20 is denoted as A)				
15.7	CCO[C@@H]1C[C@H]2C(=O)NC3(CC(C)(C)C3)C(=O)N(C)[C@@H](C(CC)CC)C(=O)N(C)[C@H](C(=O)N(C)C)CC(=O)N(C)[C@@H](C(C)C)C(=O)N[C@@H]([C@@H](C)CC)C(=O)N(C)CC(=O)N(C)[C@H]3C/C=C\CCN(C3=O)[C@@H](Cc3ccc(C(F)(F)F)cc3)C(=O)N(C)CC(=O)N[C@@H](CCc3cc(F)c(C(F)(F)F)c(F)c3)C(=O)N2C1 [PP2135]	A (a compound having 10 or more and less than 20 is denoted as A)	AA (a compound having 20 or more is denoted as AA)				
33.4	CCCN1C(=O)CN(C)C(=O)[C@@H]2CCN2C(=O)[C@H]([C@@H](C)CC)NC(=O)[C@H](CC(C)C)N(C)C(=O)C[C@@H](C(=O)N(C)C)NC(=O)[C@H](C2CCCC2)N(C)C(=O)C2(CCCC2)NC(=O)[C@@H]2C[C@@H](OCC)CN2C(=O)[C@H](CCc2ccc(C(F)(F)F)c(Cl)c2)NC(=O)CN(C)C(=O)[C@@H]1Cc1ccc(C(F)(F)F)cc1 [PP0377] ([NMeL]I[Aze][Sar][NPrPhe(4-CF3)][Sar][hPhe(3-Cl-4-CF3)][Hyp](Et)[Ac5c][NMeGly(cPent)]D-NMe2; lactam N-11)			C (A compound having a KD ratio of 0.1 or more and less than 3 is denoted as C)	B (a compound having 3 or more and less than 10 is denoted as B)		
5.3	CCCOC[C@H]1C(=O)N[C@@H]([C@@H](C)CC)C(=O)N(C)CC(=O)N(C)[C@H]2C/C=C\CCN(C2=O)[C@@H](Cc2ccc(C(F)(F)F)cc2)C(=O)N(C)CC(=O)N[C@@H](CCc2cc(F)c(C(F)(F)F)c(F)c2)C(=O)N2C[C@H](OCC)C[C@H]2C(=O)NC2(CC(F)(F)C2)C(=O)N(C)[C@@H](C2CCCC2)C(=O)N(C)[C@H](C(=O)N(C)CCC)CC(=O)N1C [PP1744]					A (a compound having 10 or more and less than 20 is denoted as A)	A (a compound having 10 or more and less than 20 is denoted as A)
228	CCO[C@@H]1C[C@H]2C(=O)NC3(CCC3)C(=O)N(C)[C@@H](C3CCCC3)C(=O)N(C)[C@H](C(=O)N3CCOCC3)CC(=O)N(C)[C@@H](COC)C(=O)N[C@@H]([C@@H](C)CC)C(=O)N3CC[C@H]3C(=O)N(C)[C@H]3CCCCCN(C3=O)[C@@H](Cc3ccc(C(F)(F)F)cc3)C(=O)N(C)CC(=O)N[C@@H](CCc3cc(F)c(C(F)(F)F)c(F)c3)C(=O)N2C1 [PP0863]			B (a compound having 3 or more and less than 10 is denoted as B)	B (a compound having 3 or more and less than 10 is denoted as B)		
15.5	CCCN1C(=O)CN(C)C(=O)CN(C)C(=O)[C@H]([C@@H](C)CC)NC(=O)[C@H](CC(C)C)N(C)C(=O)C[C@@H](C(=O)N2CCOCC2)N(C)C(=O)[C@H](C2CCCC2)N(C)C(=O)C(C)(C)NC(=O)[C@@H]2CCCN2C(=O)[C@H](CCc2ccc(C(F)(F)F)c(Cl)c2)NC(=O)CN(C)C(=O)[C@@H]1Cc1ccc(C(F)(F)F)cc1 [PP0230] ([NMeL]I[Sar][Sar][NPrPhe(4-CF3)][Sar][hPhe(3-Cl-4-CF3)]P[Aib][NMeGly(cPent)][NMeD]-Morpholide; lactam N-11)			C (A compound having a KD ratio of 0.1 or more and less than 3 is denoted as C)	B (a compound having 3 or more and less than 10 is denoted as B)		
11	CCCN(C)C(=O)[C@@H]1CC(=O)N(C)[C@@H](COCC)C(=O)N[C@@H]([C@@H](C)CC)C(=O)N(C)CC(=O)N(C)[C@H]2C/C=C\CCN(C2=O)[C@@H](Cc2ccc(C(F)(F)F)cc2)C(=O)N(C)CC(=O)N[C@@H](CCc2cc(F)c(C(F)(F)F)c(F)c2)C(=O)N2C[C@H](OCC)C[C@H]2C(=O)NC2(CCC2)C(=O)N(C)[C@@H](C2CCCC2)C(=O)N1C [PP1988]	A (a compound having 10 or more and less than 20 is denoted as A)	A (a compound having 10 or more and less than 20 is denoted as A)				
27.8	CCO[C@@H]1C[C@H]2C(=O)NC3(CC(C)(C)C3)C(=O)N(C)[C@@H](C(CC)CC)C(=O)N(C)[C@H](C(=O)N(C)C)CC(=O)N(C)[C@@H](CC3CCC3)C(=O)N[C@@H]([C@@H](C)CC)C(=O)N(C)CC(=O)N(C)[C@H]3C/C=C\CCN(C3=O)[C@@H](Cc3ccc(C(F)(F)F)cc3)C(=O)N(C)CC(=O)N[C@@H](CCc3ccc(Cl)c(Cl)c3)C(=O)N2C1 [PP2180]	A (a compound having 10 or more and less than 20 is denoted as A)	AA (a compound having 20 or more is denoted as AA)				

Second part, the compound before the results:

SMILES	IC50 [2] [nM]	HRAS /KRAS (HRAS wild-type protein; [3])	NRAS /KRAS [1, 4]	HRAS /KRAS (HRAS wild-type protein; [5])	NRAS /KRAS [1, 6]	HRAS /KRAS (HRAS wild-type protein; [7])	NRAS /KRAS [1, 8]
CCCN1C(=O)[C@@H]2CCN2C(=O)[C@H](C)N(C)C(=O)[C@H]([C@@H](C)CC)NC(=O)[C@H](CC(C)C)N(C)C(=O)C[C@@H](C(=O)N2CCOCC2)N(C)C(=O)[C@H](C2CCCC2)N(C)C(=O)C2(CCC2)NC(=O)[C@@H]2C[C@@H](OCC)CN2C(=O)[C@H](CCc2ccc(C(F)(F)F)c(Cl)c2)NC(=O)CN(C)C(=O)[C@@H]1Cc1ccc(C(F)(F)F)cc1 [PP0406] ([NMeL]I[NMeA][Aze][NPrPhe(4-CF3)][Sar][hPhe(3-Cl-4-CF3)][Hyp](Et)[Ac4c][NMeGly(cPent)][NMeD]-Morpholide; lactam N-11)	2.5	B (a compound having 3 or more and less than 10 is denoted as B)	C (A compound having a KD ratio of 0.1 or more and less than 3 is denoted as C)				
CCO[C@@H]1C[C@H]2C(=O)NC3(CCC3)C(=O)N(C)[C@@H](C3CCCC3)C(=O)N(C)[C@H](C(=O)N(C)C)CC(=O)N(C)[C@@H](CSC)C(=O)N[C@@H]([C@@H](C)CC)C(=O)N(C)CC(=O)N(C)[C@H]3C/C=C\CCN(C3=O)[C@@H](Cc3ccc(C(F)(F)F)cc3)C(=O)N(C)CC(=O)N[C@@H](CCc3cc(F)c(C(F)(F)F)c(F)c3)C(=O)N2C1 [PP1119]	25.5			A (a compound having 10 or more and less than 20 is denoted as A)	A (a compound having 10 or more and less than 20 is denoted as A)		
CCCN1CC(=O)N2CC[C@H]2C(=O)N(CCC)[C@@H](Cc2ccc(C(F)(F)F)cc2)C(=O)N(C)CC(=O)N[C@@H](CCc2ccc(C(F)(F)F)c(Cl)c2)C(=O)N2CCC[C@H]2C(=O)NC2(CCCC2)C(=O)N(C)[C@@H](C2CCCC2)C(=O)N(C)[C@H](C(=O)N2CCOCC2)CC(=O)N(C)[C@@H](CC(C)C)C(=O)N[C@@H]([C@@H](C)CC)C1=O [PP0274] ([NMeL]I[NPrGly][Aze][NPrPhe(4-CF3)][Sar][hPhe(3-Cl-4-CF3)]P[Ac5c][NMeGly(cPent)][NMeD]-Morpholide; lactam N-11)	9.1			B (a compound having 3 or more and less than 10 is denoted as B)	C (A compound having a KD ratio of 0.1 or more and less than 3 is denoted as C)		
CC[C@H](C)[C@@H]1NC(=O)[C@H](CC(C)C)N(C)C(=O)C[C@@H](C(=O)N2CCOCC2)N(C)C(=O)[C@H](C2CCCC2)N(C)C(=O)C2(CCCC2)NC(=O)[C@@H]2CCCN2C(=O)[C@H](CCc2ccc(C(F)(F)F)c(Cl)c2)NC(=O)CN(C)C(=O)[C@H](Cc2ccc(C(F)(F)F)cc2)N(CCC(C)C)C(=O)CN(C)C(=O)CN(C)C1=O [PP0126] ([NMeL]I[Sar][Sar][X38][Sar][hPhe(3-Cl-4-CF3)]P[Ac5c][NMeGly(cPent)][NMeD]-Morpholide; lactam N-11)	9.3			C (A compound having a KD ratio of 0.1 or more and less than 3 is denoted as C)	C (A compound having a KD ratio of 0.1 or more and less than 3 is denoted as C)		
CC[C@H](C)[C@@H]1NC(=O)[C@H](CC)N(C)C(=O)C[C@@H](C(=O)N(C)CC)N(C)C(=O)[C@H](C2CCCC2)N(C)C(=O)C2(CCC2)NC(=O)[C@@H]2C[C@@H](C)CN2C(=O)[C@H](CCc2ccc(C(F)(F)F)c(OC)c2)NC(=O)CN(C)C(=O)[C@H](Cc2ccc(C)cc2)N2CC/C=C\C[C@@H](C2=O)N(C)C(=O)CN(C)C1=O [PP1855]	17.7					A (a compound having 10 or more and less than 20 is denoted as A)	AA (a compound having 20 or more is denoted as AA)
C=CC[C@H]1C(=O)N[C@@H]([C@@H](C)CC)C(=O)N(C)CC(=O)N(C)[C@H]2CCCCN(C2=O)[C@@H](Cc2ccc(C(F)(F)F)cc2)C(=O)N(C)CC(=O)N[C@@H](CCc2cc(F)c(C(F)(F)F)c(F)c2)C(=O)N2C[C@H](OCC)C[C@H]2C(=O)NC2(CCC2)C(=O)N(C)[C@@H](C2CCCC2)C(=O)N(C)[C@H](C(=O)N2CCOCC2)CC(=O)N1C [PP0710]	4.9	B (a compound having 3 or more and less than 10 is denoted as B)	C (A compound having a KD ratio of 0.1 or more and less than 3 is denoted as C)				
